Source: patent US8158636B2, “Compounds and methods for kinase modulation, and indications therefor” (Plexxikon Inc., priority 2008, dated 2012)

Legend:
Type in all cases: biochemical
[1] = target: B-Raf V600E (Homo sapiens, UniProt P15056, V600E); assay: Kinase activity assay, B-Raf V600E; settings: Table 1c; read-out: activity toward kinase B-Raf V600E, IC50
Excerpt: (§1) Assays for the activity of kinases, including, but not limited to, Fms, Kit, B-Raf, B-Raf V600E, c-Raf-1, and TrkA are known in the art, for example as described in US Patent Publication Number US20070032519 and U.S. patent application Ser. No. 11/473,347 (see also, PCT publication WO2007002433), the disclosures of which are hereby incorporated by reference with respect to such assays.

[2] = target: C-Raf (Homo sapiens, UniProt P04049); assay: Kinase activity assay, C-Raf; settings: Table 1d; read-out: activity toward kinase C-Raf, IC50
Excerpt: as §1

[3] = target: Fms (Homo sapiens, UniProt P07333); assay: Kinase activity assay, Fms; settings: Table 1h; read-out: activity toward kinase Fms, IC50
Excerpt: as §1

[4] = target: Kdr (Homo sapiens, UniProt P35968); assay: Kinase activity assay, Kdr; settings: Table 1i; read-out: activity toward kinase Kdr, IC50
Excerpt: as §1

[5] = target: Kit (Homo sapiens, UniProt P10721); assay: Kinase activity assay, Kit; settings: Table 1j; read-out: activity toward kinase Kit, IC50
Excerpt: as §1

[6] = target: TrkA (Homo sapiens, UniProt P04629); assay: Kinase activity assay, TrkA; settings: Table 1m; read-out: activity toward kinase TrkA, IC50
Excerpt: as §1

[7] = target: T1, Flt-3 (Homo sapiens, UniProt P36888); assay: Kinase activity assay, Flt-3; settings: Table 1g; read-out: activity toward kinase Flt-3, IC50
T1 sequence (P36888 27-993): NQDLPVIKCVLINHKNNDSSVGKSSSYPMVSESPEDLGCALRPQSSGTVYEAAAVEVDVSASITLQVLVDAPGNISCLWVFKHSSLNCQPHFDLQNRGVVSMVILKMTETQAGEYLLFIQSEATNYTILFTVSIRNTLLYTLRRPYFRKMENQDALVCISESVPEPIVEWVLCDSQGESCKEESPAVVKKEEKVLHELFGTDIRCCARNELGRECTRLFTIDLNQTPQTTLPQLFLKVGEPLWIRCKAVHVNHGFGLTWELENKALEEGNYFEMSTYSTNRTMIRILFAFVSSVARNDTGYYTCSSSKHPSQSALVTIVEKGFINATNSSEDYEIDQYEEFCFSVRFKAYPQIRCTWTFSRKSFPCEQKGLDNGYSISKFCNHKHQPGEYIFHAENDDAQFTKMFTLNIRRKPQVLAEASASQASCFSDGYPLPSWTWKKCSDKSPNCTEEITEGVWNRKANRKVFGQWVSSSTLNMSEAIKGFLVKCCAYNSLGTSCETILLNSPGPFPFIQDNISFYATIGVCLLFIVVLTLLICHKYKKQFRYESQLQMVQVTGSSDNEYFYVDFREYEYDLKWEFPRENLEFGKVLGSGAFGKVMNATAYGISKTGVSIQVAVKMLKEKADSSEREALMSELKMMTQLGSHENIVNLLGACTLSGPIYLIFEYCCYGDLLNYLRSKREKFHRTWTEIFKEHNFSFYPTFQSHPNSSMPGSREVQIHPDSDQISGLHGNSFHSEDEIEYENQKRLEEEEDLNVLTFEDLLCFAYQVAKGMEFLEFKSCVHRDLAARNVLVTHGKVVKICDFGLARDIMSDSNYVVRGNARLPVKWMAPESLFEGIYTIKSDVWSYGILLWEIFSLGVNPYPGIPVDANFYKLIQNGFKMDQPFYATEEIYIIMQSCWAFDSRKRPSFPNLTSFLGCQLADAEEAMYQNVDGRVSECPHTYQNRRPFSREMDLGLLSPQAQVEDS
Excerpt: as §1

Measured: IC50

Chain of B-Raf V600E (P15056 whole entry V600E): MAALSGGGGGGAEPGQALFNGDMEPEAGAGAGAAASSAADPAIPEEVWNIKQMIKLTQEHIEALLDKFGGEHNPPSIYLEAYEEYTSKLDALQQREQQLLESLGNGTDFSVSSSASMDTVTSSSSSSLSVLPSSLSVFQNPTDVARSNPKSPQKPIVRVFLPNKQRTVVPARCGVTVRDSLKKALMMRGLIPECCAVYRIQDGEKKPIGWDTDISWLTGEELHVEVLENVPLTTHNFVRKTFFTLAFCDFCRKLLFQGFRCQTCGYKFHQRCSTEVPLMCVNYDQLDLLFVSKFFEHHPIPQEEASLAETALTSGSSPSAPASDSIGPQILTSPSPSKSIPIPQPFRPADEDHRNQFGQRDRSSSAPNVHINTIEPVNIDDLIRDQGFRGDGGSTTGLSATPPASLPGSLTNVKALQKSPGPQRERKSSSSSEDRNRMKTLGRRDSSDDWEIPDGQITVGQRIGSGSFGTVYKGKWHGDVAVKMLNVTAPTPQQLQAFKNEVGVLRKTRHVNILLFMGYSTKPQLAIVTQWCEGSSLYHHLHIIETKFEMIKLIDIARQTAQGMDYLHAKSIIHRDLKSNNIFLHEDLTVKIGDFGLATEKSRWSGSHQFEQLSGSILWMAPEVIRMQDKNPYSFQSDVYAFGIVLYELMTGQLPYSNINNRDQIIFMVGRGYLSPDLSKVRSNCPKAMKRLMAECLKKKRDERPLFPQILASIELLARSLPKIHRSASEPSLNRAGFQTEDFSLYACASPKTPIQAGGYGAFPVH
Chain of Kdr (P35968 20-1356): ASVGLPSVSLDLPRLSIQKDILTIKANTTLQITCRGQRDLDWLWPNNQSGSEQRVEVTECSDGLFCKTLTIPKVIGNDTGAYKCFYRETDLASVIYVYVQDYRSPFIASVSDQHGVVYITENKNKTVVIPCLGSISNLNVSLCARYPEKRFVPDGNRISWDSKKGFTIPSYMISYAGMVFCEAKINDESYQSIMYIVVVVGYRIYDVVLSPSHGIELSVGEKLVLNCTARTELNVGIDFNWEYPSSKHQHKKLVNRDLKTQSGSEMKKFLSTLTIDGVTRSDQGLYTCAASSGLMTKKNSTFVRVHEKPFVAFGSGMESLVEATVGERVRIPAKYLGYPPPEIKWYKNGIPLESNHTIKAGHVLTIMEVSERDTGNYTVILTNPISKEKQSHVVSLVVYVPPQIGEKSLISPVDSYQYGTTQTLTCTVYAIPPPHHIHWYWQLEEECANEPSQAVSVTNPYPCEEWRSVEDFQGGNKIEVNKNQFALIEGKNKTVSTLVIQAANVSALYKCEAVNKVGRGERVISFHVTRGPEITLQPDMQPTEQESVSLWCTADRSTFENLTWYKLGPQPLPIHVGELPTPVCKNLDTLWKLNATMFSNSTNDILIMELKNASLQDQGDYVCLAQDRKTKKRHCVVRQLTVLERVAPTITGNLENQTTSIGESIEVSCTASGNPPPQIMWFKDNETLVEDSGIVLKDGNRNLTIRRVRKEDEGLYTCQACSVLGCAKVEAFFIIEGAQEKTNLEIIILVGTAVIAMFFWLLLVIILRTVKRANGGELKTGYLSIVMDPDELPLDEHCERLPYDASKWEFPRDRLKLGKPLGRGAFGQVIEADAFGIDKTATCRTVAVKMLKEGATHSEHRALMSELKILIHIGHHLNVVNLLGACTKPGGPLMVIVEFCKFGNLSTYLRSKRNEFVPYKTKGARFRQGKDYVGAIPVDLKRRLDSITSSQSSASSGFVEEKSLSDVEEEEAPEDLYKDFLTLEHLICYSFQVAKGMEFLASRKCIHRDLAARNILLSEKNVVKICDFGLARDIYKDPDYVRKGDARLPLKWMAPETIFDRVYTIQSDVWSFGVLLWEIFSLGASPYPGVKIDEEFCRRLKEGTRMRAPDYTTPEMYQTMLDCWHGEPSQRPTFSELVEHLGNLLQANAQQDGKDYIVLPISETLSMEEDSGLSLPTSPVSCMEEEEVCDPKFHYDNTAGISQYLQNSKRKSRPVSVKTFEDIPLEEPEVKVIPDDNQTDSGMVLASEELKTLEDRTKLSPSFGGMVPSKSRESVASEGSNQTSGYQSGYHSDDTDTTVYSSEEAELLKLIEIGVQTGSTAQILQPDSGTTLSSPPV
Chain of Fms (P07333 20-972): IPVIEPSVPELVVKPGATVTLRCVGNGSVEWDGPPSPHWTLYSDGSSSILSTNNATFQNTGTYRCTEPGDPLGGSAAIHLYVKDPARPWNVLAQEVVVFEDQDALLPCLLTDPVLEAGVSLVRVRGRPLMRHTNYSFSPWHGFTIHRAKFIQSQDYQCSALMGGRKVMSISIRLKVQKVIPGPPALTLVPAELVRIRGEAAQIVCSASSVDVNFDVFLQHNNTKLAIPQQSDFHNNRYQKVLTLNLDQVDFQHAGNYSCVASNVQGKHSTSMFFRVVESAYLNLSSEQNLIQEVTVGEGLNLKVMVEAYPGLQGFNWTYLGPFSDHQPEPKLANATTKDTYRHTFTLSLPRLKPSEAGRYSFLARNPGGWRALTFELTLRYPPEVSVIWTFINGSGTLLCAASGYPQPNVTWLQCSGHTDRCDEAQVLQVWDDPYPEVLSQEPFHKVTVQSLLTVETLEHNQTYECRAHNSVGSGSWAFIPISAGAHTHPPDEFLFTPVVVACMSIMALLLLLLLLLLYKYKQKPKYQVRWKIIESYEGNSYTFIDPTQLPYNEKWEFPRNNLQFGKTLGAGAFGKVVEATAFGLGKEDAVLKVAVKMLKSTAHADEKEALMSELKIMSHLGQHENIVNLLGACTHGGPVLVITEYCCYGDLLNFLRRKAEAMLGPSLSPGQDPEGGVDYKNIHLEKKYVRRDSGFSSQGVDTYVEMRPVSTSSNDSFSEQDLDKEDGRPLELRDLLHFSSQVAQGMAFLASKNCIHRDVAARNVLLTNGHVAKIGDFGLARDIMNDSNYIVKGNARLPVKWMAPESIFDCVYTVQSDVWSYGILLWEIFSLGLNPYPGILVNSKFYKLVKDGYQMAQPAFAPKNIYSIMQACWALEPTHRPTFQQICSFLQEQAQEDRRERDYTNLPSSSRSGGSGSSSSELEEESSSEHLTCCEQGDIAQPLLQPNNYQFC
Chain of Kit (P10721 26-976): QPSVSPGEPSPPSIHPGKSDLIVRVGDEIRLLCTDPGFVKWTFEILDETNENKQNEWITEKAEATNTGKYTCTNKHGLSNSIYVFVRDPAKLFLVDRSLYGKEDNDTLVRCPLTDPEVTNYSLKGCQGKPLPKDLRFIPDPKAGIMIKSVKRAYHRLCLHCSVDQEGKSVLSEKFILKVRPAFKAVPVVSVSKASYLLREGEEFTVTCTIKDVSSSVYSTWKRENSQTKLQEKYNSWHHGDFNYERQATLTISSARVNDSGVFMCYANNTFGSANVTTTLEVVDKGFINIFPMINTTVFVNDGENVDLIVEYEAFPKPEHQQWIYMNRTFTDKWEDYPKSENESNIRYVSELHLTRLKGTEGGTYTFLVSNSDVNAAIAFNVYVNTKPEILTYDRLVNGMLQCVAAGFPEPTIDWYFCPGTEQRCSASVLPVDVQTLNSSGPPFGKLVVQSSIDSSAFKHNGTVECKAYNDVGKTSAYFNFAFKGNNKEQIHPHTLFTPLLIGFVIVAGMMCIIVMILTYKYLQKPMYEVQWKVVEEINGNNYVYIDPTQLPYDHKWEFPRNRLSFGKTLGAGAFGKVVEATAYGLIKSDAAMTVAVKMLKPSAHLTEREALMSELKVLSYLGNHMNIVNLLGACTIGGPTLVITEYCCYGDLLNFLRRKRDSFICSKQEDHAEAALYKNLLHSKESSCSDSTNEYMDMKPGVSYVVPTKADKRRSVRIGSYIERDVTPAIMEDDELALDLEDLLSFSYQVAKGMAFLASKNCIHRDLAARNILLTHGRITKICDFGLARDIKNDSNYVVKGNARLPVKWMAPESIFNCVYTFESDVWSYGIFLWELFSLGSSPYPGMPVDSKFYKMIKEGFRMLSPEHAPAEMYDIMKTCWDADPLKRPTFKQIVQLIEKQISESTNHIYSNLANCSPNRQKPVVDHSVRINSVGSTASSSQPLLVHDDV
Chain of C-Raf (P04049 whole entry): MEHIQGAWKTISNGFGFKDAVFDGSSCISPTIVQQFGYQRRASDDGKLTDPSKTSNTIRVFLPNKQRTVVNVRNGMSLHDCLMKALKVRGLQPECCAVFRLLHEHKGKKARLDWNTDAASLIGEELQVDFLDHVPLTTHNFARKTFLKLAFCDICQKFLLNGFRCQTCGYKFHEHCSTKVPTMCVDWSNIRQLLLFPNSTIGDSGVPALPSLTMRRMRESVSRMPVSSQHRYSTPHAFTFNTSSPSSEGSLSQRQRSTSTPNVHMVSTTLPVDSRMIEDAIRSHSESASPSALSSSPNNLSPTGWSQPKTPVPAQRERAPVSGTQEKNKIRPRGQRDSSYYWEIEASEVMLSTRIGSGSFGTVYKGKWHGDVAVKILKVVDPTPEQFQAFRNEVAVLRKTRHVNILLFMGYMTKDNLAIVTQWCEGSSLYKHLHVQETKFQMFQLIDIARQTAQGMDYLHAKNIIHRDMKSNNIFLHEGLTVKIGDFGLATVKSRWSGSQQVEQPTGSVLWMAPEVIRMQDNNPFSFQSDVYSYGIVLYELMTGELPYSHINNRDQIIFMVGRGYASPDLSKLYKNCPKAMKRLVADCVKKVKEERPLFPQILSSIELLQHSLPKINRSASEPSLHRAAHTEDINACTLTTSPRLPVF

FC(F)(F)c1ccc(CNc2ccc(Cc3c[nH]c4ncncc34)cn2)cn1 [P-0004, [5-(7H-Pyrrolo[2,3-d]pyrimidin-5-ylmethyl)-pyridin-2-yl]-(6-trifluoromethyl-pyridin-3-ylmethyl)-amine]
not listed: [6] | [7]
≤ 10 µM: all other assays above

CC(C)Oc1ncccc1CNc1ccc(Cc2c[nH]c3ncncc23)c(F)n1 [P-0057, [6-Fluoro-5-(7H-pyrrolo[2,3-d]pyrimidin-5-ylmethyl)-pyridin-2-yl]-(2-isopropoxy-pyridin-3-ylmethyl)-amine]
not listed: [1] | [7]
≤ 10 µM: all other assays above

Cc1cc(F)cc(CNc2ccc(Cc3c[nH]c4ncncc34)c(F)n2)c1 [P-0064, (3-Fluoro-5-methyl-benzyl)-[6-fluoro-5-(7H-pyrrolo[2,3-d]pyrimidin-5-ylmethyl)-pyridin-2-yl]-amine]
≤ 10 µM: [3] | [4] | [5] | [6]

Fc1nc(NCc2cccnc2OCC(F)(F)F)ccc1Cc1c[nH]c2ncncc12 [P-0051, [6-Fluoro-5-(7H-pyrrolo[2,3-d]pyrimidin-5-ylmethyl)-pyridin-2-yl]-[2-(2,2,2-trifluoro-ethoxy)-pyridin-3-ylmethyl]-amine]
not listed: [7]
≤ 10 µM: all other assays above

Fc1nc(NCc2ccc(N3CCOCC3)nc2)ccc1Cc1c[nH]c2ncncc12 [P-0039, [6-Fluoro-5-(7H-pyrrolo[2,3-d]pyrimidin-5-ylmethyl)-pyridin-2-yl]-(6-morpholin-4-yl-pyridin-3-ylmethyl)-amine]
≤ 10 µM: [1] | [2] | [3] | [4]

Fc1cc(Cl)cc(CNc2ccc(Cc3c[nH]c4ncncc34)c(F)n2)c1 [P-0067, (3-Chloro-5-fluoro-benzyl)-[6-fluoro-5-(7H-pyrrolo[2,3-d]pyrimidin-5-ylmethyl)-pyridin-2-yl]-amine]
not listed: [2] | [7]
≤ 10 µM: all other assays above

Fc1nc(NCc2cc(C(F)(F)F)cc(C(F)(F)F)c2)ccc1Cc1c[nH]c2ncncc12 [P-0054, (3,5-Bis-trifluoromethyl-benzyl)-[6-fluoro-5-(7H-pyrrolo[2,3-d]pyrimidin-5-ylmethyl)-pyridin-2-yl]-amine]
≤ 10 µM: [3] | [4] | [5] | [6]

COc1ncc(F)cc1CNc1ccc(Cc2c[nH]c3ncnc(OC)c23)c(F)n1 [P-0094, (5-Fluoro-2-methoxy-pyridin-3-ylmethyl)-[6-fluoro-5-(4-methoxy-7H-pyrrolo[2,3-d]pyrimidin-5-ylmethyl)-pyridin-2-yl]-amine]
≤ 10 µM: [3] | [4] | [5] | [6]

Cc1cc(C)cc(CNc2ccc(Cc3c[nH]c4ncncc34)c(F)n2)c1 [P-0063, (3,5-Dimethyl-benzyl)-[6-fluoro-5-(7H-pyrrolo[2,3-d]pyrimidin-5-ylmethyl)-pyridin-2-yl]-amine]
not listed: [2] | [7]
≤ 10 µM: all other assays above

FC(F)(F)c1ccc(CNc2ccc(Cc3c[nH]c4ncnc(C5CCCC5)c34)cn2)cn1 [P-0104, [5-(4-Cyclopentyl-7H-pyrrolo[2,3-d]pyrimidin-5-ylmethyl)-pyridin-2-yl]-(6-trifluoromethyl-pyridin-3-ylmethyl)-amine]
≤ 10 µM: [7] | [3] | [5]

CN(C)c1ccccc1CNc1ccc(Cc2c[nH]c3ncncc23)c(F)n1 [P-0061, (2-Dimethylamino-benzyl)-[6-fluoro-5-(7H-pyrrolo[2,3-d]pyrimidin-5-ylmethyl)-pyridin-2-yl]-amine]
≤ 10 µM: [3] | [4] | [5] | [6]

COc1ncc(F)cc1CNc1ncc(Cc2c[nH]c3ncnc(OC)c23)cn1 [P-0093, (5-Fluoro-2-methoxy-pyridin-3-ylmethyl)-[5-(4-methoxy-7H-pyrrolo[2,3-d]pyrimidin-5-ylmethyl)-pyrimidin-2-yl]-amine]
≤ 10 µM: [2] | [3] | [4] | [5]

COc1ncc(CNc2ncc(Cc3c[nH]c4ncncc34)cn2)cc1F [P-0024, (5-Fluoro-6-methoxy-pyridin-3-ylmethyl)-[5-(7H-pyrrolo[2,3-d]pyrimidin-5-ylmethyl)-pyrimidin-2-yl]-amine]
≤ 10 µM: [3] | [4] | [5] | [6]

CCOc1ncccc1CNc1ccc(Cc2c[nH]c3ncncc23)c(F)n1 [P-0069, (2-Ethoxy-pyridin-3-ylmethyl)-[6-fluoro-5-(7H-pyrrolo[2,3-d]pyrimidin-5-ylmethyl)-pyridin-2-yl]-amine]
≤ 10 µM: [3] | [4] | [5] | [6]

Fc1ccc(CNc2ccc(Cc3c[nH]c4ncncc34)c(F)n2)nc1 [P-0041, (5-Fluoro-pyridin-2-ylmethyl)-[6-fluoro-5-(7H-pyrrolo[2,3-d]pyrimidin-5-ylmethyl)-pyridin-2-yl]-amine]
not listed: [6] | [7]
≤ 10 µM: all other assays above

Fc1nc(NCc2cncc(Cl)c2)ccc1Cc1c[nH]c2ncncc12 [P-0044, (5-Chloro-pyridin-3-ylmethyl)-[6-fluoro-5-(7H-pyrrolo[2,3-d]pyrimidin-5-ylmethyl)-pyridin-2-yl]-amine]
≤ 10 µM: [1] | [2] | [3] | [4]

COc1ncc(CNc2ccc(Cc3c[nH]c4ncnc(OC)c34)c(F)n2)cc1F [P-0091, (5-Fluoro-6-methoxy-pyridin-3-ylmethyl)-[6-fluoro-5-(4-methoxy-7H-pyrrolo[2,3-d]pyrimidin-5-ylmethyl)-pyridin-2-yl]-amine]
not listed: [2] | [7]
≤ 10 µM: all other assays above

COc1cc(CNc2ccc(Cc3c[nH]c4ncncc34)c(F)n2)cc(C(F)(F)F)c1 [P-0082, [6-Fluoro-5-(7H-pyrrolo[2,3-d]pyrimidin-5-ylmethyl)-pyridin-2-yl]-(3-methoxy-5-trifluoromethyl-benzyl)-amine]
≤ 10 µM: [3] | [4] | [5] | [6]
